≈ marks a conversion by molar mass, not a printed value. Where two headings read alike, the source gives them in different places.
Key:
[1] = Solubility in Normal Ringer Solution; format: physicochemical; settings: aqueous buffer, kinetic from dmso stock, pH 7.4, room temperature
Method: Compounds of the invention were also tested for solubility in Normal Ringer Solution. […] Following vortex and incubation for 40 minutes at room temperature, solutions were filtered, quenched with acetonitrile, and analyzed by liquid chromatography. Solubility limits were determined by comparison to a standard curve. […] Solubility is reported as “greater than” if the observed increase between the last 2 dilutions tested is greater than 2-fold.

human TRPA1 (hTRPA1) = target: T1, human TRPA1 (hTRPA1) (Homo sapiens, UniProt O75762); assay: Inhibition of human TRPA1, whole-cell patch clamp; format: cell-based
T1 construct: expressed in transfected cells
T1 sequence (O75762 whole entry): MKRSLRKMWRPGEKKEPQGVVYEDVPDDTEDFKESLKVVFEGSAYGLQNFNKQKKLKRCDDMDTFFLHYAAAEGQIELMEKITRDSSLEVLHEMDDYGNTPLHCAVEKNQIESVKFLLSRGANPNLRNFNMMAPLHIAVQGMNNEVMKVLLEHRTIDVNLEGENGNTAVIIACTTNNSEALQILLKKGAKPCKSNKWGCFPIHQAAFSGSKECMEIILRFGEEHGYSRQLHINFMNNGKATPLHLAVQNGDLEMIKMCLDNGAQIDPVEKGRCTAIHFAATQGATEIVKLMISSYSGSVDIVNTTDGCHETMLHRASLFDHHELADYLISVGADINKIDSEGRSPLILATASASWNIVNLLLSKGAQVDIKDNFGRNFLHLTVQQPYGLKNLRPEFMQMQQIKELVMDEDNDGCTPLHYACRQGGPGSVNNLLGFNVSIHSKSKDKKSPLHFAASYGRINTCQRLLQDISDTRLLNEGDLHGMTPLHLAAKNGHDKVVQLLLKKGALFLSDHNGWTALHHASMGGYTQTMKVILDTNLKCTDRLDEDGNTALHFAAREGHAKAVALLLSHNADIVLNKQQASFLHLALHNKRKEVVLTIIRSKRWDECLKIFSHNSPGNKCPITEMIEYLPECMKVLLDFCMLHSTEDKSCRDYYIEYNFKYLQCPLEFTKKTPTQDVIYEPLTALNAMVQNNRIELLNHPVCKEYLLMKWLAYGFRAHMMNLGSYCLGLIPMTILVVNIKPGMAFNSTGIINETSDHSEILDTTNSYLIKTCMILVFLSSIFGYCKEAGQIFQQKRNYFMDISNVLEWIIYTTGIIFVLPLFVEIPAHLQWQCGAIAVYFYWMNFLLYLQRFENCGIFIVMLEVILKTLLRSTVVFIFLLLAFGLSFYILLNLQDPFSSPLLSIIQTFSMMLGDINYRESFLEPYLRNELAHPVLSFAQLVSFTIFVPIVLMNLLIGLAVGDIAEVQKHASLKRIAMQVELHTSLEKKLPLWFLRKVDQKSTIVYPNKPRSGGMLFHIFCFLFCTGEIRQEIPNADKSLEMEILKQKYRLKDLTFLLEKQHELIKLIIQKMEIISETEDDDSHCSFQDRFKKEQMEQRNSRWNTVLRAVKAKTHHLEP
Method: Data for TRPA1 inhibition was obtained by this method for the indicated compounds of Formula (I), with the relevant data included in Table 14 below. All currents were recorded in whole-cell configuration using EPC-9 and EPC-10 amplifiers and Patchmaster software (HEKA). […] The standard pipette solution consisted of 140 mM CsAsp, 10 mM EGTA, 10 mM HEPES, […], 1.91 mM CaCl2, and up to 0.3 mM Na2GTP, with pH adjusted to 7.2 with CsOH. In addition, a solution containing 145 mM CsCl, 10 mM HEPES, 10 mM EGTA, and up to 0.3 mM Na2GTP and 1 mM MgCl2 (pH 7.2 adjusted with CsOH) can be used. The standard bath solution contained 150 mM NaCl, 10 mM HEPES, 10 mM glucose, 4.5 mM KCl, 1 mM EGTA, 3 mM MgCl2, with pH adjusted to 7.4 with NaOH. In some instances, 2 mM CaCl2 was added in place of EGTA and the concentration of MgCl2 was reduced to 1 mM.
Data were collected either by continuous recordings at −60 mV or by applying voltage ramps from a holding potential of 0 mV every 4 s. Continuous recordings were collected at 400 Hz and digitally filtered off-line at 10 Hz for presentation. Voltage ramps were applied from −100 mV to 100 mV over the course of 400 ms, and data were collected at 10 kHz and filtered at […]. Inward and outward currents were analyzed from the ramps at −80 and 80 mV, respectively. Liquid junction potential correction was not used.
Solutions were switched using a gravity-fed continuous focal perfusion system. To achieve rapid temperature changes, two temperature control, and perfusion systems were employed simultaneously. For temperatures greater than or equal to 22° C., a Warner Instruments bipolar temperature controller (TC-344B) and inline heater (SHM-8) were used. […] Temperatures were confirmed using a thermistor (Warner Instruments, TA-29), with temperatures at the recorded cell estimated to be within +/−2° C. of those reported.
The antagonist effects of compounds of Formula (I) against human TRPA1 (“hTRPA1”) in a whole cell patch configuration were evaluated using the in vitro assay protocol described above.

[2] = Metabolic stability in liver microsomes; format: in vitro ADME, human; settings: 1 μM test compound; for half-life at 1 μM: human, liver microsomes, 37° C.
Method: (§1) Metabolic stability of the compounds of Formula (I) was determined by standard liver microsome assays. Briefly, metabolic stability was tested by adding the compound to be tested dissolved in DMSO to human, dog, or rat liver microsomes. Assays were run with a starting concentration of 1 μM test compound. The reaction was initiated by addition of nicotinamide adenine dinucleotide phosphate[…] (NADPH) regeneration components at 37° C., at which time an aliquot was immediately quenched in an ice-cold acetonitrile/methanol/water solution. Reaction mixture was incubated at 37° C. on a shaker, and additional aliquots were taken at 7, 15, 30 and 60 minutes. Following quench and centrifugation, samples were analyzed on HPLC/MS/MS.

[3] = Metabolic stability in liver microsomes; format: in vitro ADME
Method: as §1

[4] = Oral bioavailability of solutions in non-fasted rats; settings: rat, in vivo, oral solution, read-out: Rat % F
Method: Early bioavailability studies in rat were conducted with solutions of the compounds of the invention. Compounds were delivered via oral administration as a solution in an appropriate excipient. Example formulations include, but are not limited to: 4% DMSO, 10% Solutol HS-15, and 86% water or 4% DMSO, 5% Tween, 25% Cremophor EL. Target concentrations were typically 1 mg/mL, and administered via oral gavage to non-fasted rats. The absolute bioavailability is the dose-corrected area under the curve (AUC) non-intravenous divided by the dose corrected AUC intravenous. The formula for calculating F for a drug administered by the oral route (PO) is given below:
% F=AUC PO×Dose IV/AUC IV×Dose PO

[5] = antagonist effect, whole cell patch configuration, read-out: hTRPA1
[6] = dog liver microsomes, female, read-out: Female Half-Life
[7] = rat liver microsomes, both sexes, read-out: Half-Life Both sexes
[8] = rat liver microsomes, male, read-out: Male Half-Life

solubility at 40 min [1] | IC50 (human TRPA1 (hTRPA1); [5]) | Human Liver Microsomes Hepatic Clearance [2] | half-life at 1 μM [2] | Female Hepatic Clearance ([3]; dog liver microsomes, female) | half-life at 1 μM [3, 6] | Male Hepatic Clearance ([3]; dog liver microsomes, male) | half-life at 1 μM ([3]; dog liver microsomes, male, read-out: Male Half-Life) | half-life at 1 μM [3, 7] | Female Hepatic Clearance ([3]; rat liver microsomes, female) | half-life at 1 μM ([3]; rat liver microsomes, female, read-out: Female Half-Life) | Male Hepatic Clearance ([3]; rat liver microsomes, male) | half-life at 1 μM [3, 8] | bioavailability [4] | IC50 (human TRPA1 (hTRPA1); hTRPA1, 10 μM AITC, read-out: IC50 Inward current) | half-life at 1 μM ([3]; dog liver microsomes, both sexes, read-out: Half-Life both sexes) | SMILES
> 14.3 µM | 5.15 nM | 16 mL/min/kg | 9 min | 18 mL/min/kg | 18 min | 22 mL/min/kg | 10 min | 39.2 min | 20 mL/min/kg | 46 min | 29 mL/min/kg | 22 min | 46% | – | – | C[C@@H](C(=O)Nc1ccnc(-c2cnc(N3CCCC3(C)C)nc2)n1)n1cnc2c1c(=O)n(C)c(=O)n2C [Compound 1, (S)-2-(1,3-dimethyl-2,6-dioxo-2,3-dihydro-1H-purin-7(6H)-yl)-N-(2′-(2,2-dimethylpyrrolidin-1-yl)-[2,5′-bipyrimidin]-4-yl)propanamide]
~32.4 µM (≈ 17.6 µg/mL) | 6.87 nM | 8 mL/min/kg | 43 min | – | 22.9 min | – | – | > 60 min | – | – | 2 mL/min/kg | 787 min | 100% | 6.9 ± 3.1 nM | 22.9 min | C[C@@H](C(=O)Nc1ccnc(-c2cnc(N3CCC[C@H]3C(F)(F)F)nc2)n1)n1cnc2c1c(=O)n(C)c(=O)n2C [Compound 2, (S)-2-(1,3-dimethyl-2,6-dioxo-2,3-dihydro-1H-purin-7(6H)-yl)-N-(2′-((S)-2-(trifluoromethyl)pyrrolidin-1-yl)-[2,5′-bipyrimidin]-4-yl)propanamide]
> 31.3 µM | 11.3 nM | – | 19.8 min | – | – | – | – | 72.6 min | – | – | – | – | 100% | – | – | C[C@@H](C(=O)Nc1ccnc(-c2cnc(N3CCC[C@@H]3C(F)(F)F)nc2)n1)n1cnc2c1c(=O)n(C)c(=O)n2C [Compound 4, (S)-2-(1,3-dimethyl-2,6-dioxo-2,3-dihydro-1H-purin-7(6H)-yl)-N-(2′-((R)-2-(trifluoromethyl)pyrrolidin-1-yl)-[2,5′-bipyrimidin]-4-yl)propanamide]
